US20220160680A1, “MICROORGANISM MIXTURES, MOLECULES DERIVED THEREFROM, AND METHODS OF USE THEREOF” (B. G. Negev Technologies and Applications Ltd., at …, priority 2018, published 2022)

Assays:
Salmonella = assay: Static biofilm assay (CLSM); format: cell-based, Salmonella enteritidis; conditions: 50 μM
Protocol: For static biofilm assay, overnight cultures of P. aeruginosa (PA01), Salmonella and Staphylococcus aureus strains were diluted 1:10 in fresh LB medium containing a final concentration of synthesized molecule (203) of 20 or 50 μM, or DMSO (up to 1%) as control. Biofilms were grown under non-shaking conditions at 37° C. in 96-well plate (Thermo Scientific, Rochester, N.Y., USA). […] The stained cells were washed twice with PBS. Biofilm images were taken by CLSM (Plan-Apochromat 20×/0.8 M27, Zeiss LSM880, Germany).
P. aeruginosa PA01, Salmonella and Staphylococcus aureus strains were incubated for 24 hr at 37° C. The bacterial suspension was diluted 1:10 with fresh LB and incubated for 3 h with the kefir biomass crude extract molecules or with DMSO as a control (refreshment sample). In all cultures, DMSO concentration was up to 1% (v/v). 200 μl of the broth medium mix with yogurt extract or with DMSO as control were placed in each well of a 96-well plate (Thermo Scientific, Rochester, N.Y., USA). 2 μl refreshment samples were added to each suitable well. The plate incubated for 24 hr at 37° C. After the incubation the samples washed three times with PBS. For visualizing of viable cells, the bacteria were stained green and dead cells stained red using the BacLight® Dead/Live Kit (Invitrogen, Eugene, Oreg., USA). The stained cells were washed twice with PBS. […]

[1] = Oxygen radical absorbance capacity (ORAC) assay; format: biochemical; conditions: AAPH-induced
Excerpt: FIGS. 34A-34B are graphs showing the anti-oxidation effect of tryptophol acetate and tyrosol acetate. Anti-oxidative capacity of the molecules as measured by DPPH (34A) and ORAC (34B) assays. 34A. The results are presented as a percentage of absorbance inhibition (517 nm, the absorbance maximum of DPPH) in the presence of tryptophol acetate (1) alone, tyrosol acetate alone (2) alone, and 1+2 together. 34B. Fluorescence decay of fluorescein induced by AAPH in the absence or presence of 1 and 2. Reaction mixtures containing fluorescein (60 nM) and AAPH (18.75 mM) in 200 μl of phosphate buffer (75 mM, pH 7.4) were incubated at 37° C. for 800 min. Changes in fluorescence intensity emitted by fluorescein were monitored. Results are presented as the net area under the curve (AUC). Each value is the mean±SD of triplicate experiments. ***p<0.0001
The ORAC experiment measures the quenching of fluorescein emission by peroxyl radicals, and inhibition of the oxidation reaction by molecular species added to the solution.

V. cholerae VC1 WT = assay: RT-qPCR of QS genes; format: cell-based, Vibrio cholerae; conditions: 100 μM
Protocol: RNA was extracted from wild-type strain VC1 cultured in LB lennox medium supplemented with or without 100 μM Tryptophol acetate or Tyrosol acetate grown to an A600 of approximately 1.0OD using the RNA Protect Bacteria reagent and the RNeasy® Mini Kit (Qiagen, Valencia, Calif.) as per the manufacturer's instructions, including the on-column DNase I digestion described by the manufacturer. Purified RNA was quantified using a Banalyzer (Eppendorf, Hamburg, Germany). cDNA was synthesized from 1 μg of RNA using PrimeScript™ RT reagent kit (Takara, Ohtsu, Japan). The reaction was incubated at 37° C. for 30 min, and 2 μl of cDNA was subjected to RT-PCR analysis on an AB Step One Plus PCR system (Applied Biosystems, Carlsbad, Calif.), using qPCRBIO SyGreen Blue mix Hi-ROX (PCR Biosystems, London, UK). RT-PCR was performed in a 96-well plate (Bio-Rad) in triplicate in a 20 μl volume. The mdh gene was used as an endogenous loading control for the reactions. The amount of transcript was analyzed with StepOnePlus Software V2.3 (Applied Biosystems Carlsbad, Calif.). Mdh forward primer 5′-[…]-3′ (SEQ ID NO: 1); Mdh reverse primer 5′-[…]-3′ (SEQ ID NO: 2); vpsT forward primer 5′-[…]-3′ (SEQ ID NO: 3); vpsT reverse primer 5′-[…]-3′ (SEQ ID NO: 4); ctxA forward primer 5′-[…]-3′ (SEQ ID NO: 5); ctxA reverse primer 5′-[…]-3′ (SEQ ID NO: 6); aphA forward primer 5′-[…]-3′ (SEQ ID NO: 7); aphA reverse primer 5′-[…]-3′ (SEQ ID NO: 8). For Transcriptome libraries construction, we used the purified RNA as described in section Quantitative Real-time PCR (RT-PCR) Analysis. The ribosomal RNA was depleted using MICROBExpress kit (Invitrogen by Thermo Fisher Scientific, Lithuania). The libraries preparation was performed using SMARTer Standard RNA-Seq kit (Takara Bio, USA) according to manufacture instruction. High Throughput Sequencing Analysis was done by Illumina HiSeq 2500, SR 50 bp and barcode Raw data quality values phred+33. the amount and percentage of reads that passed the sequencer's automated quality filter, control mapping value, error rate, and per-base quality scores indicate that the sequencing was of high quality. Only a small percentage of reads were discarded due to trimming and the peak of the length distribution is at the original length of 51. The Software and applications that were used for comparison analyses are Library quality control: FASTQC version 0.11.5; Trim_galore (uses cutadapt version 1.10); Mapping: Tophat2 version 2.1.0 (uses Bowtie2 version 2.2.6); Gene counting: HTseq-count version 0.6.1. For normalization and differential expression analysis, DESeq2 R package version 1.18.1 Input files. The reference genome used in the analysis was of Vibrio cholerae O1 biovar El Tor str. N16961, from the following link: ftp://ftp.ncbi.nlm.nih.gov/genomes/all/GCF/000/006/745/GCF_000006745.1_ASM674v1. Counting was performed using an annotation file downloaded at the following link: ftp://ftp.ncbi.nlm.nih.gov/genomes/all/GCF/000/006/745/GCF_000006745.1_ASM674v1/G CF_000006745.1_ASM674v1_genomic.gtf.gz. All these files can be found in our FTP server, see section 4-Analysis result files.

amyloid beta (αβ1-42) = biological target: T1, amyloid beta (αβ1-42) (Homo sapiens, UniProt P05067); assay: Transmission electron microscopy of fibrillation; format: biochemical; conditions: 24 hr, 37° C.
T1 construct: samples containing 30 μM amyloid beta [4(1-42)] in the absence or presence of tryptophol acetate
T1 sequence (P05067 672-713 limits assumed): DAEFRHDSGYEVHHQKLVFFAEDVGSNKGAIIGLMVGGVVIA
Protocol: TEM grids were prepared after 24 hr incubation at 37° C. of samples containing 30 μM 4(1-42) in the absence or presence of tryptophol acetate in different concentrations.

| Structure (SMILES) | Biofilm formation, Salmonella (Salmonella) | Fluorescence decay of fluorescein [1] | aphA expression (V. cholerae VC1 WT; high cell density) | ctxA expression (V. cholerae VC1 WT; high cell density) | hapA expression (V. cholerae VC1 WT; high cell density) | hapR expression (V. cholerae VC1 WT; high cell density) | vpsT expression (V. cholerae VC1 WT; high cell density) | Fibrillation formation (TEM) (amyloid beta (αβ1-42)) | QS-related genes' expression (V. cholerae VC1 WT) |
| --- | --- | --- | --- | --- | --- | --- | --- | --- | --- |
| CC(=O)OCCc1c[nH]c2ccccc12 [Tryptophol acetate] | significant influence on biofilm formation | around 400 min | upregulation | significantly repressed | lower expression | significant downregulation | remarkable upregulation | significantly inhibited | – |
| CC(=O)OCCc1ccc(O)cc1 [Tyrosol acetate] | – | ~800 min | – | – | – | – | – | – | affect QS-related genes' expression |
